Results reported in publication PMC11840788, “3,3′-Diindolylmethane (DIM): A Molecular Scaffold for Inhibition of WWP1 and WWP2, Members of the NEDD4 Family HECT E3 Ligases” (ACS Omega, 2025).

Target: WWP1 (Homo sapiens, UniProt Q9H0M0)
Assay: STD NMR binding, WWP1
Conditions: 500 μM ligand, 20 μM protein
Experimental: Given the similarities between WWP1 and WWP2 HECT domains, we speculated that the relatively low sensitivity of DSF may not be able to detect weak WWP2-I3C interactions and therefore opted to investigate further using STD NMR. STD NMR is a versatile ligand-based NMR approach, relying on selective saturation of the protein. This saturation is transferred to the ligand when and if the ligand binds, causing a reduction of the signal intensities. The STD intensities are calculated as the difference of the reference spectra (where selective saturation is off) minus the irradiated spectra, and they are proportional to the vicinity of the protein surface. […]
An Amicon centrifuge filter unit with a 10 kDa MW cutoff was used to exchange the protein in 25 mM d19-2,2-bis(hydroxymethyl)-2,2′,2″-nitrilotriethanol, 100 mM NaCl and 1.0 mM DTT buffer pH* 8.9 (uncorrected for the deuterium isotope effect on the pH glass electrode) in D2O. […] All the NMR experiments were performed on a Bruker Avance 800.23 MHz at 278 K. Binding epitope mappings were obtained by determining the initial slopes (STD0) calculated by performing a least-squares fitting of the following monoexponential curve: [drawing 1] where STD(tsat) is the STD intensity for a saturation time, tsat, STDmax is the maximum STD intensity and ksat is the rate constant for saturation transfer. […]

WWP1, sequence (Q9H0M0 546-922 limits assumed): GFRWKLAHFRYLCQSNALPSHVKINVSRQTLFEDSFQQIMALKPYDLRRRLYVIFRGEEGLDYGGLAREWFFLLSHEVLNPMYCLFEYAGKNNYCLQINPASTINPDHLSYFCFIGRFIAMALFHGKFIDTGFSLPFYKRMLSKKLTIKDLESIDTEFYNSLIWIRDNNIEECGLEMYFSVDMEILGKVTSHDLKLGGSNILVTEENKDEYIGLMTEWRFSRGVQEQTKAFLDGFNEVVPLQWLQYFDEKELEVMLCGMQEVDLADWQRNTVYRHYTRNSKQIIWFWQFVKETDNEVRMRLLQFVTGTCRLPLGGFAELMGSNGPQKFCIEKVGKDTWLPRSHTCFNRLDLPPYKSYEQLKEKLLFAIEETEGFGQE

OCc1c[nH]c2ccccc12 [Compound I3C, Indole-3-carbinol, reference compound]
STD intensities, WWP1-I3C complex: ~30%
